US20160376247A1, “NOVEL TEMPERATURE-SENSITIVE FLUORESCENT COMPOUND AND APPLICATION THEREOF” (SHANGHAI INSTITUTES FOR BIOLOGICAL SCIENCES, CHINESE …, priority 2013, published 2016)

Columns and labels:
[1] = Temperature dependence of Stokes luminescence intensity of dye in solution; type: physicochemical; settings: for temperature-sensitive properties of Stokes luminescence: 10 μM dye, emission spectra at different temperatures
Procedure: Concentration of dye is 10 μM, and solvent is 150 mM KCl solution, pH 7.5; (d) Stokes emission spectra (excited at 530 nm) of 10 μM RhBME (dissolved in 150 mM KCl solution at pH 7.5) at different temperatures (from bottom to top, 45, 35, 25, 15, 5[…] respectively), and Stokes luminescence intensity is normalized against peak at 25[…].

[2] = Temperature dependence of anti-Stokes luminescence intensity of dye in solution; type: physicochemical; settings: 10 μM in 150 mM KCl pH 7.5, excited at 633 nm, 5-45 degrees
Procedure: Concentration of dye is 10 μM, and solvent is 150 mM KCl solution, pH 7.5; (d) anti-Stokes emission spectra (excited at 633 nm) of 10 μM Rh101ME (dissolved in 150 mM KCl solution at pH 7.5) at different temperatures (from top to bottom, 45, 35, 25, 15, 5[…] respectively), and anti-Stokes luminescence intensity is normalized against peak at 25[…].
From the spectrogram of Rh101 and derivatives thereof (FIG. 1a), it can be seen that there is no significant difference in spectroscopic characteristics between the compound of formula II (Rh101AM) or the compound of formula IV (Rh101ME) and Rh101.

[3] = literature [2, 3]; cited from earlier work
[4] = literature [2, 3]; cited from earlier work; remark: listed apart in the source

| Compound | temperature-sensitive properties of Stokes luminescence [1] | Stokes luminescence intensity vs temperature [1] | further results |
| --- | --- | --- | --- |
| O=C(O)c1ccccc1C1=c2cc3c4c(c2Oc2c1cc1c5c2CCCN5CCC1)CCC[N+]=4CCC3 [Rh101, rhodamine 101] | does not possess temperature-sensitive properties | – | anti-Stokes luminescence intensity vs temperature [2]: increases as the temperature increases; Anti-Stokes emission intensity vs temperature [3]: enhanced as the temperature increases |
| CCCCCCCCCCCCCCCCOC(=O)c1ccccc1-c1c2ccc(=[N+](CC)CC)cc-2oc2cc(N(CC)CC)ccc12 [RhB-C16] | possesses temperature-sensitive properties | – | – |
| tetramethylrhodamine methyl ester [TMRM] | possess temperature-sensitive properties | – | – |
| N#CC1=c2cc3c4c(c2Oc2c1cc1c5c2CCCN5CCC1)CCC[N+]=4CCC3 [Rh800] | does not possess temperature-sensitive properties at a wavelength of less than 700 nm | – | – |
| N=c1ccc2c(-c3ccccc3C(=O)O)c3ccc(N)cc3oc-2c1 [Rh110] | does not possess temperature-sensitive properties | – | – |
| CCN(CC)c1ccc2c(-c3ccccc3C(=O)OC)c3ccc(N(CC)CC)cc3[o+]c2c1.[Cl-] [RhBME] | – | decreases as the temperature increases | – |
| CCN(CC)c1ccc2c(-c3ccccc3C(=O)OCc3ccc(C(=O)Nc4cc5cccnc5c5ncccc45)cc3)c3ccc(=[N+](CC)CC)cc-3oc2c1 [RPA, Rhodamine B-[(1,10-phenanthrolin-5-yl)aminocarbonyl]benzyl ester] | possess temperature-sensitive properties | – | – |
| CCN(CC)c1ccc2c(-c3ccccc3C(=O)O)c3ccc(=[N+](CC)CC)cc-3oc2c1 [RhB, Rhodamine B] | – | – | Stokes emission intensity vs temperature [4]: decreased as the temperature increases |
| CC(=O)OCOC(=O)c1ccccc1C1=c2cc3c4c(c2Oc2c1cc1c5c2CCCN5CCC1)CCC[N+]=4CCC3 [Rh101AM] | – | does not substantially change as the temperature changes | – |
| CCN(CC)c1ccc2c(-c3ccccc3C(=O)OCOC(C)=O)c3ccc(=[N+](CC)CC)cc-3oc2c1 [RhBAM] | – | decreases as the temperature increases | – |
